Results: USRE32311E
Values after ≈ are worked out from the molar mass of the structure shown.

Tests used:
[1] = test system: Staphylococcus aureus X1.1; assay: agar-dilution MIC; type: cell-based
[2] = test system: Staphylococcus aureus V41; assay: agar-dilution MIC; type: cell-based; conditions: Staphylococcus aureus V41, penicillin-resistant strain
Description: (§1) In Table VII activity is measured by the minimal inhibitory concentration (MIC), i.e. the lowest concentration of compound at which growth of the microorganism is inhibited by the test compound.

[3] = test system: Staphylococcus aureus X400; assay: agar-dilution MIC; type: cell-based; conditions: Staphylococcus aureus X400, methicillin-resistant strain
Description: as §1

[4] = test system: Staphylococcus epidermidis EP11; assay: agar-dilution MIC; type: cell-based
Description: as §1

[5] = test system: Staphylococcus epidermidis EP12; assay: agar-dilution MIC; type: cell-based
Description: as §1

[6] = test system: Streptococcus Group D X66; assay: agar-dilution MIC; type: cell-based
Description: as §1

[7] = test system: Streptococcus Group D 9960; assay: agar-dilution MIC; type: cell-based
Streptococcus pyogenes = assay: experimental bacterial infection in mice, ED50; type: in vivo; conditions: two doses
toxicity, LD50 in mice = type: in vivo; conditions: administered intravenously
[8] = test system: Streptococcus pyogenes C203; assay: agar-dilution MIC; type: cell-based
Description: as §1

[9] = test system: Streptococcus pneumoniae Park I; type: cell-based; conditions: agar dilution
Description: as §1

Staphylococcus aureus = assay: experimental bacterial infection in mice, ED50; type: in vivo; conditions: two doses

Structure (SMILES)	MIC [1]	MIC [2]	MIC [3]	MIC [4]	MIC [5]	MIC [6]	MIC [7]	ED50 Streptococcus pyogenes Oral (Streptococcus pyogenes)	LD50 in Mice (toxicity, LD50 in mice)	MIC [8]	MIC [9]	ED50 Staphylococcus aureus Subcutaneous (Staphylococcus aureus)	ED50 Streptococcus pyogenes Subcutaneous (Streptococcus pyogenes)
CCCCCCCCCCCC(=O)N[C@H](Cc1ccccc1)C(=O)N[C@@H](Cc1c[nH]c2ccccc12)C(=O)N[C@H](CC(N)=O)C(=O)N[C@@H](CC(=O)O)C(=O)N[C@@H]1C(=O)NCC(=O)N[C@@H](CCCN)C(=O)N[C@@H](CC(=O)O)C(=O)N[C@H](C)C(=O)N[C@@H](CC(=O)O)C(=O)NCC(=O)N[C@H](CO)C(=O)N[C@@H]([C@H](C)CC(=O)O)C(=O)N[C@@H](CC(=O)c2ccccc2N)C(=O)O[C@@H]1C [Compound 1]	0.5 mg/L (≈ 0.278 µM)	0.5 mg/L (≈ 0.278 µM)	1 mg/L (≈ 0.557 µM)	2 mg/L (≈ 1.11 µM)	1 mg/L (≈ 0.557 µM)	1 mg/L (≈ 0.557 µM)	0.5 mg/L (≈ 0.278 µM)	> 200 mg/kg × 2	250 mg/kg	–	–	–	–
CCCCCCCCCCCC(=O)NCCCCC(=O)N[C@@H](Cc1c[nH]c2ccccc12)C(=O)N[C@H](CC(N)=O)C(=O)N[C@@H](CC(=O)O)C(=O)N[C@@H]1C(=O)NCC(=O)N[C@@H](CCCN)C(=O)N[C@@H](CC(=O)O)C(=O)N[C@H](C)C(=O)N[C@@H](CC(=O)O)C(=O)NCC(=O)N[C@H](CO)C(=O)N[C@@H]([C@H](C)CC(=O)O)C(=O)N[C@@H](CC(=O)c2ccccc2N)C(=O)O[C@@H]1C [Compound 2]	4 mg/L (≈ 2.29 µM)	4 mg/L (≈ 2.29 µM)	4 mg/L (≈ 2.29 µM)	4 mg/L (≈ 2.29 µM)	2 mg/L (≈ 1.14 µM)	32 mg/L (≈ 18.3 µM)	8 mg/L (≈ 4.58 µM)	117 mg/kg × 2	> 600 mg/kg	1 mg/L (≈ 0.572 µM)	4 mg/L (≈ 2.29 µM)	–	–
CCCCCCCCCCCC(=O)NCCCCCCCCCCC(=O)N[C@@H](Cc1c[nH]c2ccccc12)C(=O)N[C@H](CC(N)=O)C(=O)N[C@@H](CC(=O)O)C(=O)N[C@@H]1C(=O)NCC(=O)N[C@@H](CCCN)C(=O)N[C@@H](CC(=O)O)C(=O)N[C@H](C)C(=O)N[C@@H](CC(=O)O)C(=O)NCC(=O)N[C@H](CO)C(=O)N[C@@H]([C@H](C)CC(=O)O)C(=O)N[C@@H](CC(=O)c2ccccc2N)C(=O)O[C@@H]1C [Compound 3]	2 mg/L (≈ 1.09 µM)	2 mg/L (≈ 1.09 µM)	8 mg/L (≈ 4.37 µM)	8 mg/L (≈ 4.37 µM)	8 mg/L (≈ 4.37 µM)	8 mg/L (≈ 4.37 µM)	8 mg/L (≈ 4.37 µM)	> 200 mg/kg × 2	600 mg/kg	2 mg/L (≈ 1.09 µM)	0.5 mg/L (≈ 0.273 µM)	> 18 mg/kg × 2	6.2 mg/kg × 2
CCCCCCCCCCCC(=O)Nc1ccc(C(=O)N[C@@H](Cc2c[nH]c3ccccc23)C(=O)N[C@H](CC(N)=O)C(=O)N[C@@H](CC(=O)O)C(=O)N[C@@H]2C(=O)NCC(=O)N[C@@H](CCCN)C(=O)N[C@@H](CC(=O)O)C(=O)N[C@H](C)C(=O)N[C@@H](CC(=O)O)C(=O)NCC(=O)N[C@H](CO)C(=O)N[C@@H]([C@H](C)CC(=O)O)C(=O)N[C@@H](CC(=O)c3ccccc3N)C(=O)O[C@@H]2C)cc1 [Compound 4]	4 mg/L (≈ 2.26 µM)	–	8 mg/L (≈ 4.53 µM)	–	–	–	–	> 200 mg/kg × 2	> 300 mg/kg	–	–	< 5 mg/kg × 2	18.8 mg/kg × 2
CCCCCCCCCC(=O)N[C@@H](Cc1c[nH]c2ccccc12)C(=O)N[C@@H](CC(N)=O)C(=O)N[C@@H](CC(=O)O)C(=O)N[C@@H]1C(=O)NCC(=O)N[C@@H](CCCN)C(=O)N[C@@H](CC(=O)O)C(=O)N[C@H](C)C(=O)N[C@@H](CC(=O)O)C(=O)NCC(=O)N[C@H](CO)C(=O)N[C@@H]([C@H](C)CC(=O)O)C(=O)N[C@@H](CC(=O)c2ccccc2N)C(=O)O[C@@H]1C [Compound 6]	1 mg/L (≈ 0.617 µM)	2 mg/L (≈ 1.23 µM)	4 mg/L (≈ 2.47 µM)	2 mg/L (≈ 1.23 µM)	2 mg/L (≈ 1.23 µM)	16 mg/L (≈ 9.87 µM)	2 mg/L (≈ 1.23 µM)	–	–	0.5 mg/L (≈ 0.309 µM)	2 mg/L (≈ 1.23 µM)	–	–
CCCCCCCCCCCCCCCC(=O)N[C@@H](Cc1c[nH]c2ccccc12)C(=O)N[C@@H](CC(N)=O)C(=O)N[C@@H](CC(=O)O)C(=O)N[C@@H]1C(=O)NCC(=O)N[C@@H](CCCN)C(=O)N[C@@H](CC(=O)O)C(=O)N[C@H](C)C(=O)N[C@@H](CC(=O)O)C(=O)NCC(=O)N[C@H](CO)C(=O)N[C@@H]([C@H](C)CC(=O)O)C(=O)N[C@@H](CC(=O)c2ccccc2N)C(=O)O[C@@H]1C [Compound 10]	–	–	–	2.1 mg/L (≈ 1.23 µM)	–	–	2.1 mg/L (≈ 1.23 µM)	–	450 mg/kg	0.06 mg/L (≈ 0.0352 µM)	0.25 mg/L (≈ 0.147 µM)	–	0.69 mg/kg × 2
CCCCCCCCC(=O)N[C@@H](Cc1ccccc1)C(=O)N[C@@H](Cc1c[nH]c2ccccc12)C(=O)N[C@H](CC(N)=O)C(=O)N[C@@H](CC(=O)O)C(=O)N[C@@H]1C(=O)NCC(=O)N[C@@H](CCCN)C(=O)N[C@@H](CC(=O)O)C(=O)N[C@H](C)C(=O)N[C@@H](CC(=O)O)C(=O)NCC(=O)N[C@H](CO)C(=O)N[C@@H]([C@H](C)CC(=O)O)C(=O)N[C@@H](CC(=O)c2ccccc2N)C(=O)O[C@@H]1C [Compound 18]	2 mg/L (≈ 1.14 µM)	2 mg/L (≈ 1.14 µM)	4 mg/L (≈ 2.28 µM)	4 mg/L (≈ 2.28 µM)	2 mg/L (≈ 1.14 µM)	32 mg/L (≈ 18.2 µM)	8 mg/L (≈ 4.56 µM)	184 mg/kg × 2	> 600 mg/kg	0.5 mg/L (≈ 0.285 µM)	–	1.38 mg/kg × 2	0.59 mg/kg × 2
CCCCCCCCCC(=O)N[C@@H](Cc1ccccc1)C(=O)N[C@@H](Cc1c[nH]c2ccccc12)C(=O)N[C@H](CC(N)=O)C(=O)N[C@@H](CC(=O)O)C(=O)N[C@@H]1C(=O)NCC(=O)N[C@@H](CCCN)C(=O)N[C@@H](CC(=O)O)C(=O)N[C@H](C)C(=O)N[C@@H](CC(=O)O)C(=O)NCC(=O)N[C@H](CO)C(=O)N[C@@H]([C@H](C)CC(=O)O)C(=O)N[C@@H](CC(=O)c2ccccc2N)C(=O)O[C@@H]1C [Compound 19, NTrp-[N-(n-Decanoyl)-L-phenylalanyl]-A-21978C Nucleus]	0.5 mg/L (≈ 0.283 µM)	0.5 mg/L (≈ 0.283 µM)	1 mg/L (≈ 0.566 µM)	1 mg/L (≈ 0.566 µM)	0.5 mg/L (≈ 0.283 µM)	8 mg/L (≈ 4.53 µM)	2 mg/L (≈ 1.13 µM)	> 200 mg/kg × 2	600 mg/kg	0.25 mg/L (≈ 0.141 µM)	0.75 mg/L (≈ 0.424 µM)	–	0.39 mg/kg × 2
CCCCCCCCCCC(=O)N[C@@H](Cc1ccccc1)C(=O)N[C@@H](Cc1c[nH]c2ccccc12)C(=O)N[C@H](CC(N)=O)C(=O)N[C@@H](CC(=O)O)C(=O)N[C@@H]1C(=O)NCC(=O)N[C@@H](CCCN)C(=O)N[C@@H](CC(=O)O)C(=O)N[C@H](C)C(=O)N[C@@H](CC(=O)O)C(=O)NCC(=O)N[C@H](CO)C(=O)N[C@@H]([C@H](C)CC(=O)O)C(=O)N[C@@H](CC(=O)c2ccccc2N)C(=O)O[C@@H]1C [Compound 20]	0.5 mg/L (≈ 0.281 µM)	0.5 mg/L (≈ 0.281 µM)	2 mg/L (≈ 1.12 µM)	2 mg/L (≈ 1.12 µM)	2 mg/L (≈ 1.12 µM)	4 mg/L (≈ 2.24 µM)	2 mg/L (≈ 1.12 µM)	> 200 mg/kg × 2	400 mg/kg	–	–	1.25 mg/kg × 2	0.35 mg/kg × 2
CCCCCCCCCCCCC(=O)N[C@@H](Cc1ccccc1)C(=O)N[C@@H](Cc1c[nH]c2ccccc12)C(=O)N[C@H](CC(N)=O)C(=O)N[C@@H](CC(=O)O)C(=O)N[C@@H]1C(=O)NCC(=O)N[C@@H](CCCN)C(=O)N[C@@H](CC(=O)O)C(=O)N[C@H](C)C(=O)N[C@@H](CC(=O)O)C(=O)NCC(=O)N[C@H](CO)C(=O)N[C@@H]([C@H](C)CC(=O)O)C(=O)N[C@@H](CC(=O)c2ccccc2N)C(=O)O[C@@H]1C [Compound 21]	0.5 mg/L (≈ 0.276 µM)	0.5 mg/L (≈ 0.276 µM)	2 mg/L (≈ 1.11 µM)	2 mg/L (≈ 1.11 µM)	2 mg/L (≈ 1.11 µM)	1 mg/L (≈ 0.553 µM)	0.25 mg/L (≈ 0.138 µM)	> 200 mg/kg × 2	–	–	–	0.76 mg/kg × 2	0.14 mg/kg × 2
CCCCCCCCCCC(=O)N[C@@H](Cc1ccccc1)C(=O)NCCC[C@@H]1NC(=O)CNC(=O)[C@@H](NC(=O)[C@H](CC(=O)O)NC(=O)[C@@H](CC(N)=O)NC(=O)[C@@H](N)Cc2c[nH]c3ccccc23)[C@@H](C)OC(=O)[C@H](CC(=O)c2ccccc2N)NC(=O)[C@H]([C@H](C)CC(=O)O)NC(=O)[C@@H](CO)NC(=O)CNC(=O)[C@H](CC(=O)O)NC(=O)[C@@H](C)NC(=O)[C@H](CC(=O)O)NC1=O [Compound 26]	8 mg/L (≈ 4.49 µM)	–	–	–	–	–	32 mg/L (≈ 18 µM)	> 200 mg/kg × 2	–	1 mg/L (≈ 0.561 µM)	–	9.2 mg/kg × 2	> 18 mg/kg × 2
CCCCCC(=O)N[C@@H](Cc1c[nH]c2ccccc12)C(=O)NCCC[C@@H]1NC(=O)CNC(=O)[C@@H](NC(=O)[C@H](CC(=O)O)NC(=O)[C@@H](CC(N)=O)NC(=O)[C@H](Cc2c[nH]c3ccccc23)NC(=O)CCCCCCCCC(C)CC)[C@@H](C)OC(=O)[C@H](CC(=O)c2ccccc2N)NC(=O)[C@H]([C@H](C)CC(=O)O)NC(=O)[C@@H](CO)NC(=O)CNC(=O)[C@H](CC(=O)O)NC(=O)[C@@H](C)NC(=O)[C@H](CC(=O)O)NC1=O (some centres unmarked) [Compound 29]	–	–	1 mg/L (≈ 0.514 µM)	–	–	8 mg/L (≈ 4.11 µM)	32 mg/L (≈ 16.4 µM)	> 200 mg/kg × 2	37.5 mg/kg	–	–	–	–
